Results published in ChEMBL document CHEMBL1132301, “Carbonic anhydrase inhibitors. Synthesis of water-soluble, topically effective, intraocular pressure-lowering aromatic/heterocyclic sulfonamides containing cationic or anionic moieties: is the tail more important than the ring?” (J Med Chem, 1999).

What was measured:
Oryctolagus cuniculus [1] = organism: Oryctolagus cuniculus; assay type: functional, Eye
Description: In vivo fall of IOP of Glaucomatous rabbits after treatment with 1 drop(50 microL) of 2% solution of CA inhibitor with pH value 7.4 into the eye at 0 min

Oryctolagus cuniculus [2] = organism: Oryctolagus cuniculus; assay type: functional, Eye; remark: listed apart in the source
Description: In vivo fall of IOP of normotensive rabbits after treatment with 1 drop(50 microL) of 2% solution of CA inhibitor with pH value 7.4 into the eye at 60 min

Oryctolagus cuniculus [3] = organism: Oryctolagus cuniculus; assay type: functional, Eye; remark: listed apart in the source
Description: Drug concentration was tested in ocular fluids and tissues after 2 hour following the corneal application in normotensive albino rabbits on cornea

Oryctolagus cuniculus [4] = organism: Oryctolagus cuniculus; assay type: functional, Eye; remark: listed apart in the source
Description: In vivo fall of IOP of Glaucomatous rabbits after treatment with 1 drop(50 microL) of 2% solution of CA inhibitor with pH value 7.4 into the eye at 60 min

Oryctolagus cuniculus [5] = organism: Oryctolagus cuniculus; assay type: functional, Eye; remark: listed apart in the source
Description: In vivo fall of IOP of normotensive rabbits after treatment with 1 drop(50 microL) of 2% solution of CA inhibitor with pH value 7.4 into the eye at 90 min.

Oryctolagus cuniculus [6] = organism: Oryctolagus cuniculus; assay type: functional, Eye; remark: listed apart in the source
Description: Drug concentration was tested in ocular fluids and tissues after 1 hour following the corneal application in normotensive albino rabbits on aqueous humor

Oryctolagus cuniculus [7] = organism: Oryctolagus cuniculus; assay type: functional, Eye; remark: listed apart in the source
Description: Drug concentration was tested in ocular fluids and tissues after 2 hour following the corneal application in normotensive albino rabbits on cilirary process

Oryctolagus cuniculus [8] = organism: Oryctolagus cuniculus; assay type: functional, Eye; remark: listed apart in the source
Description: In vivo fall of IOP of normotensive rabbits after treatment with 1 drop(50 microL) of 2% solution of CA inhibitor with pH value 7.4 into the eye at 30 min

Oryctolagus cuniculus [9] = organism: Oryctolagus cuniculus; assay type: functional, Eye; remark: listed apart in the source
Description: In vivo fall of IOP of normotensive rabbits after treatment with 1 drop(50 microL) of 2% solution of CA inhibitor with pH value 8.4 into the eye at 30 min

Oryctolagus cuniculus [10] = organism: Oryctolagus cuniculus; assay type: functional, Eye; remark: listed apart in the source
Description: Drug concentration was tested in ocular fluids and tissues after 1 hour following the corneal application in normotensive albino rabbits on cilirary process

Oryctolagus cuniculus [11] = organism: Oryctolagus cuniculus; assay type: functional, Eye; remark: listed apart in the source
Description: In vivo fall of IOP of normotensive rabbits after treatment with 1 drop(50 microL) of 2% solution of CA inhibitor with pH value 7.4 into the eye at 0 min

Oryctolagus cuniculus [12] = organism: Oryctolagus cuniculus; assay type: functional, Eye; remark: listed apart in the source
Description: Drug concentration was tested in ocular fluids and tissues after 2 hour following the corneal application in normotensive albino rabbits on aqueous humor

Oryctolagus cuniculus [13] = organism: Oryctolagus cuniculus; assay type: functional, Eye; remark: listed apart in the source
Description: In vivo fall of IOP of Glaucomatous rabbits after treatment with 1 drop(50 microL) of 2% solution of CA inhibitor with pH value 7.4 into the eye at 90 min.

Oryctolagus cuniculus [14] = organism: Oryctolagus cuniculus; assay type: functional, Eye; remark: listed apart in the source
Description: Drug concentration was tested in ocular fluids and tissues after 1 hour following the corneal application in normotensive albino rabbits on cornea

Oryctolagus cuniculus [15] = organism: Oryctolagus cuniculus; assay type: functional, Eye; remark: listed apart in the source
Description: In vivo fall of IOP of Glaucomatous rabbits after treatment with 1 drop(50 microL) of 2% solution of CA inhibitor with pH value 7.4 into the eye at 30 min

Oryctolagus cuniculus [16] = organism: Oryctolagus cuniculus; assay type: functional, Eye; remark: listed apart in the source
Description: In vivo fall of IOP of normotensive rabbits after treatment with 1 drop(50 microL) of 2% solution of CA inhibitor with pH value 8.4 into the eye at 90 min.

Oryctolagus cuniculus [17] = organism: Oryctolagus cuniculus; assay type: functional, Eye; remark: listed apart in the source
Description: In vivo fall of IOP of normotensive rabbits after treatment with 1 drop(50 microL) of 2% solution of CA inhibitor with pH value 8.4 into the eye at 60 min

Oryctolagus cuniculus [18] = organism: Oryctolagus cuniculus; assay type: functional, Eye; remark: listed apart in the source
Description: In vivo fall of IOP of normotensive rabbits after treatment with 1 drop(50 microL) of 2% solution of CA inhibitor with pH value 8.4 into the eye at 0 min

Oryctolagus cuniculus [19] = assay: In vivo fall of IOP of normotensive rabbits after treatment with 1 drop(50 microL) of […]% solution of CA inhibitor with pH value 8.5 into the eye at 60 min; assay type: functional
Oryctolagus cuniculus [20] = organism: Oryctolagus cuniculus; assay type: functional, Eye; remark: listed apart in the source
Description: In vivo fall of IOP of Glaucomatous rabbits after treatment with 1 drop(50 microL) of 2% solution of CA inhibitor with pH value 5.5 into the eye at 90 min.

Oryctolagus cuniculus [21] = organism: Oryctolagus cuniculus; assay type: functional, Eye; remark: listed apart in the source
Description: In vivo fall of IOP of Glaucomatous rabbits after treatment with 1 drop(50 microL) of 2% solution of CA inhibitor with pH value 5.5 into the eye at 60 min

Oryctolagus cuniculus [22] = organism: Oryctolagus cuniculus; assay type: functional, Eye; remark: listed apart in the source
Description: In vivo fall of IOP of Glaucomatous rabbits after treatment with 1 drop(50 microL) of 2% solution of CA inhibitor with pH value 5.5 into the eye at 0 min

Oryctolagus cuniculus [23] = organism: Oryctolagus cuniculus; assay type: functional, Eye; remark: listed apart in the source
Description: In vivo fall of IOP of normotensive rabbits after treatment with 1 drop(50 microL) of 2% solution of CA inhibitor with pH value 5.5 into the eye at 30 min

Oryctolagus cuniculus [24] = organism: Oryctolagus cuniculus; assay type: functional, Eye; remark: listed apart in the source
Description: In vivo fall of IOP of Glaucomatous rabbits after treatment with 1 drop(50 microL) of 2% solution of CA inhibitor with pH value 5.5 into the eye at 30 min

Oryctolagus cuniculus [25] = organism: Oryctolagus cuniculus; assay type: functional, Eye; remark: listed apart in the source
Description: In vivo fall of IOP of normotensive rabbits after treatment with 1 drop(50 microL) of 2% solution of CA inhibitor with pH value 5.5 into the eye at 60 min

Oryctolagus cuniculus [26] = organism: Oryctolagus cuniculus; assay type: functional, Eye; remark: listed apart in the source
Description: In vivo fall of IOP of normotensive rabbits after treatment with 1 drop(50 microL) of 2% solution of CA inhibitor with pH value 5.5 into the eye at 90 min.

Carbonic anhydrase 4 = biological target: T1, Carbonic anhydrase 4 (Bos taurus, UniProt Q95323)
T1 sequence (Q95323 whole entry): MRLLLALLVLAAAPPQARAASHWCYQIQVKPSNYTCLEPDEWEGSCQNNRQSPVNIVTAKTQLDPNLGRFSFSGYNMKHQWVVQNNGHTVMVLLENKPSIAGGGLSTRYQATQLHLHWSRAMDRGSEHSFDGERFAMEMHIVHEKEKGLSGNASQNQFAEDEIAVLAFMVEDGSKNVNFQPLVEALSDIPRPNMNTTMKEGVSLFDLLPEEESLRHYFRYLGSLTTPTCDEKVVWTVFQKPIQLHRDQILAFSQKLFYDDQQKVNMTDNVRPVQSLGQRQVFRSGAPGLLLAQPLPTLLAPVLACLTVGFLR
Description: Inhibitory activity against bovine lung microsomes carbonic anhydrase isozyme IV (bCA IV).

[27] = octanol/water
Description: Partition coefficient (logD) (chloroform/buffer)

Carbonic anhydrase 2 = Carbonic anhydrase 2 (Homo sapiens, UniProt P00918)
Description: Inhibitory activity against human recombinant carbonic anhydrase II

[28] = Compound was tested for solubility in pH buffer, at 25 degree C.(As sodium hydroxylate salts); assay type: ADME
[29] = Compound was tested for solubility in pH buffer, at 25 degree C.(As hydrochloride salts); assay type: ADME
Oryctolagus cuniculus [30] = organism: Oryctolagus cuniculus
Description: Compound was tested in vitro for corneal permeability of compound across the intact cornea obtained from rabbit

Oryctolagus cuniculus [31] = organism: Oryctolagus cuniculus; remark: listed apart in the source
Description: Compound was tested in vitro for corneal permeability of compound across the Denuded epithelial cornea obtained from rabbit

Carbonic anhydrase 1 = Carbonic anhydrase 1 (Homo sapiens, UniProt P00915)
Chain of Carbonic anhydrase 1 (P00915 whole entry): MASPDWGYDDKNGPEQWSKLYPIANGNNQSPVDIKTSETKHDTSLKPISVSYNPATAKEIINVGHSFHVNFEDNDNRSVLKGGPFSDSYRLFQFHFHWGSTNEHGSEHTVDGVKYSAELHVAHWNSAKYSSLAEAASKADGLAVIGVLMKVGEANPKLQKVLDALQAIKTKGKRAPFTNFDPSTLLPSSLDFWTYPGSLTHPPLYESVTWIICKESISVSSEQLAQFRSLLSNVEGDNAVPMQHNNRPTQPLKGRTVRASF
Description: Inhibitory activity against human cloned carbonic anhydrase isozyme I (hCA I, cytosolic form).

Oryctolagus cuniculus [32] = organism: Oryctolagus cuniculus; assay type: functional, Eye; remark: listed apart in the source
Description: In vivo fall of IOP of normotensive rabbits after treatment with 1 drop(50 microL) of 2% solution of CA inhibitor with pH value 5.9 into the eye at 90 min.

Oryctolagus cuniculus [33] = organism: Oryctolagus cuniculus; assay type: functional, Eye; remark: listed apart in the source
Description: In vivo fall of IOP of normotensive rabbits after treatment with 1 drop(50 microL) of 2% solution of CA inhibitor with pH value 5.9 into the eye at 60 min

Oryctolagus cuniculus [34] = organism: Oryctolagus cuniculus; assay type: functional, Eye; remark: listed apart in the source
Description: In vivo fall of IOP of normotensive rabbits after treatment with 1 drop(50 microL) of 2% solution of CA inhibitor with pH value 5.9 into the eye at 30 min

Oryctolagus cuniculus [35] = organism: Oryctolagus cuniculus; assay type: functional, Eye; remark: listed apart in the source
Description: In vivo fall of IOP of normotensive rabbits after treatment with 1 drop(50 microL) of 2% solution of CA inhibitor with pH value 5.9 into the eye at 0 min

CCN(C(=O)c1cccc(C(=O)[O-])n1)C1CC(C)S(=O)(=O)c2sc(S(N)(=O)=O)cc21.[Na+] (centres undefined)
Delta IOP (Oryctolagus cuniculus [1]): 0 mmHg | Delta IOP (Oryctolagus cuniculus [2]): 7.2 mmHg | Drug concentration (Oryctolagus cuniculus [3]): 44 µM | Delta IOP (Oryctolagus cuniculus [4]): 10.1 mmHg | Delta IOP (Oryctolagus cuniculus [5]): 9.8 mmHg | Drug concentration (Oryctolagus cuniculus [6]): 278 µM | Drug concentration (Oryctolagus cuniculus [7]): 10 µM | Delta IOP (Oryctolagus cuniculus [8]): 3.5 mmHg | Delta IOP (Oryctolagus cuniculus [9]): 3.6 mmHg | Drug concentration (Oryctolagus cuniculus [10]): 47 µM | Delta IOP (Oryctolagus cuniculus [11]): 0 mmHg | Drug concentration (Oryctolagus cuniculus [12]): 39 µM | Delta IOP (Oryctolagus cuniculus [13]): 11.8 mmHg | Drug concentration (Oryctolagus cuniculus [14]): 113 µM | Delta IOP (Oryctolagus cuniculus [15]): 6.5 mmHg | Delta IOP (Oryctolagus cuniculus [16]): 9.9 mmHg | Delta IOP (Oryctolagus cuniculus [17]): 7.7 mmHg | Delta IOP (Oryctolagus cuniculus [18]): 0 mmHg

NS(=O)(=O)c1ccc(NC(=O)c2cccc(C(=O)[O-])n2)c(F)c1.[Na+]
pDelta IOP (Oryctolagus cuniculus [19]): 4.8 mmHg

CCN(C(=O)c1cccc(C(=O)O)n1)C1CC(C)S(=O)(=O)c2sc(S(N)(=O)=O)cc21.Cl (centres undefined)
Delta IOP (Oryctolagus cuniculus [20]): 12.1 mmHg | Delta IOP (Oryctolagus cuniculus [21]): 9.9 mmHg | Delta IOP (Oryctolagus cuniculus [22]): 0 mmHg | Delta IOP (Oryctolagus cuniculus [23]): 3.5 mmHg | Delta IOP (Oryctolagus cuniculus [24]): 6.5 mmHg | Delta IOP (Oryctolagus cuniculus [25]): 6.8 mmHg | Delta IOP (Oryctolagus cuniculus [26]): 9.1 mmHg

Cl.NS(=O)(=O)c1nnc(NC(=O)CCN2C(=O)c3cccnc3C2=O)s1
Drug concentration (Oryctolagus cuniculus [3]): 45 µM | Drug concentration (Oryctolagus cuniculus [6]): 280 µM | Drug concentration (Oryctolagus cuniculus [7]): 12 µM | Drug concentration (Oryctolagus cuniculus [10]): 50 µM | Drug concentration (Oryctolagus cuniculus [12]): 42 µM | Drug concentration (Oryctolagus cuniculus [14]): 158 µM

CCN(C(=O)c1cccc(C(=O)O)n1)C1CC(C)S(=O)(=O)c2sc(S(N)(=O)=O)cc21 (centres undefined)
Ki (Carbonic anhydrase 4): 17 nM | logD [27]: 1.736 | Ki (Carbonic anhydrase 2): 5 nM | solubility [28]: 64 mM | solubility [29]: 58 mM | Kin (Oryctolagus cuniculus [30]): 2800 h⁻¹ | Kin (Oryctolagus cuniculus [31]): 5900 h⁻¹ | Ki (Carbonic anhydrase 1): 400 nM

NS(=O)(=O)c1nc2ccc(N3C(=O)c4cccnc4C3=O)cc2s1.O=S(=O)(O)C(F)(F)F
Delta IOP (Oryctolagus cuniculus [32]): 4 mmHg | Delta IOP (Oryctolagus cuniculus [33]): 4.4 mmHg | Delta IOP (Oryctolagus cuniculus [34]): 2 mmHg | Delta IOP (Oryctolagus cuniculus [35]): 0 mmHg
